# Laboratory results taken from patent US6969609B1 (priority 1998, dated 2005).
# Test system: BMDC
# Type: cell-based, C57BL/6 mice
substance,measurement,value
TNF-α,B7-1 % positive cells,85%
same,B7-1 MFI,(320)
same,B7-2 % positive cells,71%
same,B7-2 MFI,(412)
same,CD11b % positive cells,84%
same,CD11b MFI,(729)
same,CD11c % positive cells,20%
same,CD11c MFI,(149)
same,CD40 % positive cells,65%
same,CD40 MFI,(159)
same,H-2K^b/D^b % positive cells,91%
same,H-2K^b/D^b MFI,(195)
same,I-A^b % positive cells,95%
same,I-A^b MFI,(1189)
same,ICAM-1 % positive cells,97%
same,ICAM-1 MFI,(421)
same,LFA-3 % positive cells,87%
same,LFA-3 MFI,(249)
